≈ marks a conversion by molar mass, not a printed value.
Key:
Pseudomonas aeruginosa = assay: Antimicrobial activity against Pseudomonas aeruginosa ATCC 27853 assessed as inhibition of bacterial growth incubated at 35 degC for 12 to 18 hrs; format: functional
Enterococcus faecalis = assay: Antimicrobial activity against vancomycin-resistant Enterococcus faecalis ATCC 1299 assessed as inhibition of bacterial growth incubated at 35 degC for 12 to 18 hrs; format: functional
Escherichia coli [1] = assay: Antimicrobial activity against Escherichia coli ATCC 25922 assessed as inhibition of bacterial growth incubated at 35 degC for 12 to 18 hrs; format: functional
Staphylococcus aureus [2] = assay: Antimicrobial activity against methicillin-resistant Staphylococcus aureus ATCC 33591 assessed as inhibition of bacterial growth incubated at 35 degC for 12 to 18 hrs; format: functional
Staphylococcus aureus [3] = assay: Antimicrobial activity against Staphylococcus aureus ATCC 25923 assessed as inhibition of bacterial growth incubated at 35 degC for 12 to 18 hrs; format: functional
Fusarium graminearum [4] = assay: Antimicrobial activity against Fusarium graminearum B4-5A using RPMI medium by microbroth dilution assay; format: functional
Fusarium graminearum [5] = assay: Antimicrobial activity against Fusarium graminearum B4-5A using potato dextrose broth as growth medium and diluent; format: functional
Botrytis cinerea = assay: Antimicrobial activity against Botrytis cinerea using potato dextrose broth as growth medium and diluent; format: functional
Microdochium nivale = assay: Antimicrobial activity against Microdochium nivale using potato dextrose broth as growth medium and diluent; format: functional
Fusarium oxysporum = assay: Antimicrobial activity against Fusarium oxysporum using potato dextrose broth as growth medium and diluent; format: functional
Rhizopus stolonifer = assay: Antimicrobial activity against Rhizopus stolonifer using potato dextrose broth as growth medium and diluent; format: functional
Phoma = assay: Antimicrobial activity against Phoma spp. using potato dextrose broth as growth medium and diluent; format: functional
Fusarium graminearum [6] = assay: Antimicrobial activity against Fusarium graminearum B4-5A infecrtion in wheat assessed as Fusarium head blight disease incidence at 1080 ug/ml pre-treated 24 hrs before infection (reference value: 61%); format: functional
[7] = Induction of hemolysis in sheep erythrocytes at 313 ug/ml; format: cell-based, Ovis aries, Erythrocyte; settings: read-out: Activity
Staphylococcus aureus [8] = assay: Antimicrobial activity against Staphylococcus aureus using potato dextrose broth as growth medium and diluent; format: functional
Escherichia coli [9] = assay: Antimicrobial activity against Escherichia coli ATCC 25922 using potato dextrose broth as growth medium and diluent; format: functional
[10] = Selectivity index, ratio of IC50 for mouse NIH/3T3 cells to MIC for Saccharomyces cerevisiae
Candida albicans = assay: Antimicrobial activity against Candida albicans 10231 using potato dextrose broth as growth medium and diluent; format: functional
Globisporangium ultimum = assay: Antimicrobial activity against Pythium ultimum using potato dextrose broth as growth medium and diluent; format: functional
[11] = Cytotoxic activity against mouse NIH/3T3 cells; format: cell-based, NIH3T3
[12] = test system: Cladosporium cladosporioides; assay: Antimicrobial activity against Cladosporium cladosporioides using potato dextrose broth as growth medium and diluent; format: functional
Fusarium graminearum [13] = assay: Antimicrobial activity against Fusarium graminearum […] in wheat assessed as reduction in Fusarium head blight disease incidence at 1080 ug/ml pre-treated 24 hrs before infection; format: functional
Fusarium graminearum [14] = assay: Antimicrobial activity against Fusarium graminearum B4-5A infecrtion in wheat assessed as Fusarium head blight disease incidence at 180 ug/ml pre-treated 24 hrs before infection (reference value: 61%); format: functional
[15] = Cytotoxic activity against human C8161.9 cells; format: cell-based
Rhodotorula mucilaginosa = assay: Antimicrobial activity against Rhodotorula piliminae using potato dextrose broth as growth medium and diluent; format: functional
Fusarium graminearum [16] = assay: Antimicrobial activity against Fusarium graminearum B4-5A infecrtion in wheat assessed as Fusarium head blight disease incidence at 5 ug/ml pre-treated 24 hrs before infection (reference value: 61%); format: functional
Curvularia brachyspora = assay: Antimicrobial activity against Curvularia brachyspora using potato dextrose broth as growth medium and diluent; format: functional
Fusarium graminearum [17] = assay: Antimicrobial activity against Fusarium graminearum B4-5A infecrtion in wheat assessed as Fusarium head blight disease incidence at 30 ug/ml pre-treated 24 hrs before infection (reference value: 61%); format: functional
Fusarium graminearum [18] = assay: Antimicrobial activity against Fusarium graminearum B4-5A infection in wheat assessed as reduction in spikelet infection rate at 5 ug/ml pre-treated 24 hrs before infection; format: functional
[19] = Selectivity index, ratio of IC50 for human C8161.9 cells to MIC for Saccharomyces cerevisiae
Verticillium = assay: Antimicrobial activity against Verticillium spp. using potato dextrose broth as growth medium and diluent; format: functional
[20] = Induction of hemolysis in sheep erythrocytes at 28 ug/ml; format: cell-based, Ovis aries, Erythrocyte; settings: read-out: Activity
Ulocladium = assay: Antimicrobial activity against Ulocladium spp. using potato dextrose broth as growth medium and diluent; format: functional; settings: Alternaria sect. Ulocladium
Fusarium graminearum [21] = assay: Antimicrobial activity against Fusarium graminearum B4-5A infection in wheat assessed as reduction in spikelet infection rate at 30 ug/ml pre-treated 24 hrs before infection; format: functional

Structure (SMILES): CCCCCCCCCC(=O)NC[C@H]1O[C@@H](O[C@@H]2[C@@H](O)[C@H](N)C[C@H](N)[C@H]2O[C@H]2O[C@H](CN)[C@@H](O)[C@H](O)[C@H]2N)[C@H](O)[C@@H]1O[C@H]1O[C@@H](CN)[C@@H](O)[C@H](O)[C@H]1N
- MIC (Pseudomonas aeruginosa): 16 µg/mL (≈ 20.8 µM)
- MIC (Enterococcus faecalis): 64 µg/mL (≈ 83.3 µM)
- MIC (Escherichia coli [1]): 32 µg/mL (≈ 41.7 µM)
- MIC (Staphylococcus aureus [2]): 125 µg/mL (≈ 163 µM)
- MIC (Staphylococcus aureus [3]): 16 µg/mL (≈ 20.8 µM)

Structure (SMILES): CCCCCCCCCCCCCC(=O)NC[C@H]1O[C@@H](O[C@@H]2[C@@H](O)[C@H](N)C[C@H](N)[C@H]2O[C@H]2O[C@H](CN)[C@@H](O)[C@H](O)[C@H]2N)[C@H](O)[C@@H]1O[C@H]1O[C@@H](CN)[C@@H](O)[C@H](O)[C@H]1N
- MIC (Pseudomonas aeruginosa): 8 µg/mL (≈ 9.71 µM)
- MIC (Enterococcus faecalis): 8 µg/mL (≈ 9.71 µM)
- MIC (Escherichia coli [1]): 8 µg/mL (≈ 9.71 µM)
- MIC (Staphylococcus aureus [2]): 4 µg/mL (≈ 4.85 µM)
- MIC (Staphylococcus aureus [3]): 2 µg/mL (≈ 2.43 µM)

Structure (SMILES): CCCCCCCCCCC(=O)OCC[C@H]1O[C@H](O[C@@H]2[C@@H](O)[C@H](O[C@H]3O[C@H](CN)[C@@H](O)[C@H](O)[C@H]3N)[C@@H](N)C[C@H]2N)[C@H](O)[C@@H](N)[C@@H]1O
- MIC (Fusarium graminearum [4]): 62.5 µg/mL (≈ 93.9 µM)

Structure (SMILES): CCCCCCCCSCC[C@H]1O[C@H](O[C@@H]2[C@@H](O)[C@H](O[C@H]3O[C@H](CN)[C@@H](O)[C@H](O)[C@H]3N)[C@@H](N)C[C@H]2N)[C@H](O)[C@@H](N)[C@@H]1O
- MIC (Fusarium graminearum [4]): 15.6 µg/mL (≈ 24.9 µM)

Structure (SMILES): Cc1ccc(S(=O)(=O)OCC[C@H]2O[C@H](O[C@@H]3[C@@H](O)[C@H](O[C@H]4O[C@H](CN)[C@@H](O)[C@H](O)[C@H]4O)[C@@H](N)C[C@H]3N)[C@H](O)[C@@H](N)[C@@H]2O)cc1
- MIC (Fusarium graminearum [4]): > 500 µg/mL

Structure (SMILES): CCCCO[C@H]1[C@H](N)[C@@H](O)[C@@H](O[C@@H]2[C@@H](O)[C@H](O[C@H]3O[C@H](CN)[C@@H](O)[C@H](O)[C@H]3N)[C@@H](N)C[C@H]2N)O[C@@H]1C
- MIC (Fusarium graminearum [4]): > 500 µg/mL
- MIC (Fusarium graminearum [5]): > 500 µg/mL

Structure (SMILES): CCCCCCCCCCCCO[C@H]1[C@H](N)[C@@H](O)[C@@H](O[C@@H]2[C@@H](O)[C@H](O[C@H]3O[C@H](CN)[C@@H](O)[C@H](O)[C@H]3N)[C@@H](N)C[C@H]2N)O[C@@H]1C
- MIC (Fusarium graminearum [4]): > 500 µg/mL
- MIC (Fusarium graminearum [5]): > 500 µg/mL

Structure (SMILES): CCCCCCCCO[C@H]1[C@H](N)[C@@H](O)[C@@H](O[C@@H]2[C@@H](O)[C@H](O[C@H]3O[C@H](CN)[C@@H](O)[C@H](O)[C@H]3N)[C@@H](N)C[C@H]2N)O[C@@H]1C
- MIC (Botrytis cinerea): 31.3 µg/mL (≈ 54 µM)
- MIC (Microdochium nivale): 3.9 µg/mL (≈ 6.73 µM)
- MIC (Fusarium oxysporum): 7.8 µg/mL (≈ 13.5 µM)
- MIC (Rhizopus stolonifer): 31.3 µg/mL (≈ 54 µM)
- MIC (Phoma): 31.3 µg/mL (≈ 54 µM)
- Activity (Fusarium graminearum [6]): 80%
- MIC (Fusarium graminearum [4]): 31.5 µg/mL (≈ 54.3 µM)
- MIC (Fusarium graminearum [5]): 7.8 µg/mL (≈ 13.5 µM)
- hemolysis at 313 ug/ml [7]: > 20%
- MIC (Staphylococcus aureus [8]): 62.5 µg/mL (≈ 108 µM)
- MIC (Escherichia coli [9]): 250 µg/mL (≈ 431 µM)
- Selectivity Index [10]: 10
- MIC (Candida albicans): 31.3 µg/mL (≈ 54 µM)
- MIC (Globisporangium ultimum): 15.6 µg/mL (≈ 26.9 µM)
- IC50 ([11]; Mus musculus, NIH3T3): > 250 µg/mL
- Activity ([11]; mouse, nih3t3): Dose-dependent effect
- MIC [12]: 31.3 µg/mL (≈ 54 µM)
- inhibition at 1080 µg/mL (Fusarium graminearum [13]): 82%
- Activity (Fusarium graminearum [14]): 76%
- IC50 ([15]; Homo sapiens): > 250 µg/mL
- Activity ([15]; human): Dose-dependent effect
- MIC (Rhodotorula mucilaginosa): 7.8 µg/mL (≈ 13.5 µM)
- Activity (Fusarium graminearum [16]): 76%
- MIC (Curvularia brachyspora): 31.3 µg/mL (≈ 54 µM)
- Activity (Fusarium graminearum [17]): 70%
- inhibition at 5 µg/mL (Fusarium graminearum [18]): 29%
- Selectivity Index [19]: 10
- MIC (Verticillium): 15.2 µg/mL (≈ 26.2 µM)
- hemolysis at 28 ug/ml [20]: 2%
- MIC (Ulocladium): 7.8 µg/mL (≈ 13.5 µM)
- inhibition at 30 µg/mL (Fusarium graminearum [21]): 49%

Structure (SMILES): NC[C@@H]1O[C@H](O[C@H]2[C@@H](O)[C@H](O[C@@H]3[C@@H](O)[C@H](N)C[C@H](N)[C@H]3O[C@H]3O[C@H](CN)[C@@H](O)[C@H](O)[C@H]3N)O[C@@H]2Cn2cc(CNC(=O)c3cc(-c4ccccc4)nc4ccccc34)nn2)[C@H](N)[C@@H](O)[C@@H]1O
- MIC (Escherichia coli [1]): 32 µg/mL (≈ 34.6 µM)
- MIC (Staphylococcus aureus [3]): 8 µg/mL (≈ 8.64 µM)

Structure (SMILES): CCCCCCC(=O)NC[C@H]1O[C@@H](O[C@@H]2[C@@H](O)[C@H](N)C[C@H](N)[C@H]2O[C@H]2O[C@H](CN)[C@@H](O)[C@H](O)[C@H]2N)[C@H](O)[C@@H]1O[C@H]1O[C@@H](CN)[C@@H](O)[C@H](O)[C@H]1N
- MIC (Pseudomonas aeruginosa): ≥ 250 µg/mL
- MIC (Enterococcus faecalis): ≥ 250 µg/mL
- MIC (Fusarium graminearum [4]): 62.5 µg/mL (≈ 86.1 µM)
- MIC (Escherichia coli [1]): 16 µg/mL (≈ 22 µM)
- MIC (Staphylococcus aureus [2]): 125 µg/mL (≈ 172 µM)
- MIC (Staphylococcus aureus [3]): 2 µg/mL (≈ 2.76 µM)

Reference: ChEMBL document CHEMBL3588813, “Antifungal Amphiphilic Aminoglycosides” (Medchemcomm, 2014)
